Source: the supplement of paper PMC10307832

How the values were obtained:
Experiment in all cases: relative viability (nuclei count vs DMSO), 5 days (fraction); higher = more cells survive
[1] = compound: C1=CC2=C(C=C(C(=C2N=C1)O)N=NC3=CC4=C(C=C3)C=C(C=C4)S(=O)(=O)O)S(=O)(=O)O + COc1cc2c(Oc3ccc(NC(=O)C4(C(=O)Nc5ccc(F)cc5)CC4)cc3F)ccnc2cc1OCCCN1CCOCC1 [Foretinib] (partner 0.25 µM)
Summary of the method: (§1)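 For relative viability, nuclei counts in treated wells were divided by those in vehicle wells. Lung cancer cell lines had been pin-tool dosed in 1536-well plates the day after seeding and cultured for 5 days, then fixed and stained in one step (final 0.05% Triton X-100, 1% formaldehyde, 1 ug/ml Hoechst) and imaged at 4×. Doses were one drug alone or a fixed anchor-drug dose plus five library-drug doses (not always all listed) in √10 steps, and values are duplicate-plate medians.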

AT-7519 + Pictilisib = compound: O=C(NC1CCNCC1)c1n[nH]cc1NC(=O)c1c(Cl)cccc1Cl [AT-7519] + CS(=O)(=O)N1CCN(Cc2cc3nc(-c4cccc5[nH]ncc45)nc(N4CCOCC4)c3s2)CC1 [Pictilisib] (partner 1 µM)
Summary of the method: as §1

[2] = compound: C1=CC2=C(C=C(C(=C2N=C1)O)N=NC3=CC4=C(C=C3)C=C(C=C4)S(=O)(=O)O)S(=O)(=O)O + C[C@@H](Oc1cc(-c2cnn(C3CCNCC3)c2)cnc1N)c1c(Cl)ccc(F)c1Cl [Crizotinib] (partner 1 µM)
Summary of the method: as §1

[3] = compound: C1=CC2=C(C=C(C(=C2N=C1)O)N=NC3=CC4=C(C=C3)C=C(C=C4)S(=O)(=O)O)S(=O)(=O)O + C[C@]1(O)C[C@@H](c2nc(-c3ccc4ccc(-c5ccccc5)nc4c3)c3c(N)nccn32)C1 [Linsitinib] (partner 1 µM)
Summary of the method: as §1

Cell Line	relative viability ([1]; first compound 0.08 µM)	relative viability ([1]; first compound 0.253 µM)	relative viability ([1]; first compound 0.8 µM)	relative viability ([1]; first compound 2.53 µM)	relative viability ([1]; first compound 8 µM)	relative viability (AT-7519 + Pictilisib; first compound 0.01 µM)	relative viability (AT-7519 + Pictilisib; first compound 0.03162 µM)	relative viability (AT-7519 + Pictilisib; first compound 0.3162 µM)	relative viability (AT-7519 + Pictilisib; first compound 1 µM)	relative viability ([2]; first compound 0.08 µM)	relative viability ([2]; first compound 0.253 µM)	relative viability ([2]; first compound 0.8 µM)	relative viability ([2]; first compound 2.53 µM)	relative viability ([2]; first compound 8 µM)	relative viability ([3]; first compound 0.08 µM)	relative viability ([3]; first compound 0.253 µM)	relative viability ([3]; first compound 0.8 µM)	relative viability ([3]; first compound 2.53 µM)	relative viability ([3]; first compound 8 µM)
H3255	0.693	0.851	0.835	0.916	0.628	0.537	0.502	0.441	0.313	0.842	1.02	0.834	0.669	0.874	0.95	0.899	0.948	1.04	0.911
NCI-H647	1.33	1.09	1.14	1.28	1.3	0.452	0.531	0.483	0.356	1.36	0.865	1.05	1.08	0.962	1.18	1.16	1.25	1.09	1.03
NCI-H2023	0.769	0.747	0.794	0.997	0.876	0.25	0.24	0.207	0.172	0.831	0.702	0.654	0.726	0.483	0.675	0.593	0.69	0.675	0.653
NCI-H23	0.544	0.923	0.925	1.04	0.84	0.534	0.438	0.428	0.123	0.539	0.614	0.463	0.533	0.51	0.625	0.446	0.63	0.722	0.578
NCI-H1944	0.899	0.937	0.93	0.769	0.748	0.356	0.334	0.323	0.339	1.24	1.1	1.09	1.12	0.846	1.21	1.15	1.24	1.17	1.25
NCI-H520	1.01	0.828	0.901	0.887	1.05	0.344	0.296	0.249	0.171	0.973	0.808	0.802	0.692	0.869	1.1	1.12	1.07	0.968	1.01
A549	1.06	0.954	0.929	0.928	0.928	0.463	0.466	0.421	0.0948	0.909	0.738	0.754	0.694	0.754	0.7	0.515	0.617	0.645	0.576
NCI-H460	1.12	1.01	1.01	1.01	0.928	0.346	0.446	0.37	0.286	1.16	0.98	0.85	1.09	0.836	1.08	0.809	0.757	0.889	0.665
